In ChEMBL document CHEMBL4265897, “Discovery of benzothiazole amides as potent antimycobacterial agents” (Bioorg Med Chem Lett, 2018):
Values after ≈ are worked out from the molar mass of the structure shown. Active and inactive are the calls of the source. The rule behind the calls is not given here.

Legend:
[1] = test system: Mycobacteroides abscessus; experiment: Antimycobacterial activity against Mycobacterium abscessus ATCC 19977 by CLSI method; assay type: functional
[2] = test system: Mycobacterium intracellulare; experiment: Antimycobacterial activity against Mycobacterium intracellulare 1956 by CLSI method; assay type: functional
Mycobacteroides chelonae = experiment: Antimycobacterial activity against Mycobacterium chelonae 93 by CLSI method; assay type: functional
[3] = test system: Mycobacterium tuberculosis; experiment: Antimycobacterial activity against Mycobacterium tuberculosis H37Rv MC2 6206 by CLSI method; assay type: functional
[4] = test system: Mycobacteroides abscessus; experiment: Antimycobacterial activity against Mycobacterium abscessus assessed as reduction in viable colony forming unit after 5 days by time-kill assay relative to control; assay type: functional
[5] = test system: Mycobacteroides abscessus; experiment: Antimycobacterial activity against Mycobacterium massiliense 119 by CLSI method; assay type: functional, Mycobacterium abscessus subsp. massiliense
[6] = test system: Mycobacteroides abscessus; experiment: Bacteriostatic activity against Mycobacterium abscessus assessed as reduction in viable colony forming unit after 3 days by time-kill assay; assay type: functional, organism-based
[7] = test system: Mycolicibacterium peregrinum; experiment: Antimycobacterial activity against Mycobacterium peregrinum ATCC 700686 by CLSI method; assay type: functional
[8] = test system: Mycobacteroides abscessus; experiment: Antimycobacterial activity against Mycobacterium abscessus 1 by CLSI method; assay type: functional
Mycobacterium avium = experiment: Antimycobacterial activity against Mycobacterium avium 101 by CLSI method; assay type: functional
[9] = test system: Mycolicibacterium fortuitum; experiment: Antimycobacterial activity against Mycobacterium fortuitum 41 by CLSI method; assay type: functional
[10] = test system: Mycobacteroides abscessus; experiment: Antimycobacterial activity against Mycobacterium abscessus 79 by CLSI method; assay type: functional
[11] = test system: Mycobacteroides abscessus; experiment: Antimycobacterial activity against Mycobacterium abscessus 103 by CLSI method; assay type: functional
[12] = test system: Mycobacteroides abscessus; experiment: Antimycobacterial activity against Mycobacterium abscessus 21 by CLSI method; assay type: functional
[13] = Oral bioavailability in mouse at 100 mg/kg; assay type: ADME, organism-based; conditions: in vivo
Cytochrome P450 2B6 = target: T1, Cytochrome P450 2B6 (Homo sapiens, UniProt P20813); experiment: Inhibition of CYP2B6 (unknown origin); assay type: ADME
T1 sequence (P20813 whole entry): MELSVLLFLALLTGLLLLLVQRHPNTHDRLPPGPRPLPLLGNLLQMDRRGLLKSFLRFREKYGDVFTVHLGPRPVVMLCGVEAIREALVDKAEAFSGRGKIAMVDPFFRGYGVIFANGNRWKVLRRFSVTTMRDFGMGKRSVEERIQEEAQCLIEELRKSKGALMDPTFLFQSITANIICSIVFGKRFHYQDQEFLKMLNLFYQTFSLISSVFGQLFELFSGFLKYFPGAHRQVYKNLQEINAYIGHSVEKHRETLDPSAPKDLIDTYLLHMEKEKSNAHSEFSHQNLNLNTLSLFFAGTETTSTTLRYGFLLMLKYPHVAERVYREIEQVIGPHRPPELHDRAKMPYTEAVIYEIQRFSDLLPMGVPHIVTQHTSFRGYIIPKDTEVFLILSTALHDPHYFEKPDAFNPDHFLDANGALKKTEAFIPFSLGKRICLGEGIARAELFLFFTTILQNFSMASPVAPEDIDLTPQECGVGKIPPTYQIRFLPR

Cytochrome P450 2C9 = Cytochrome P450 2C9 (Homo sapiens, UniProt P11712); experiment: Inhibition of CYP2C9 (unknown origin); assay type: ADME
Cytochrome P450 3A4 [14] = target: T2, Cytochrome P450 3A4 (Homo sapiens, UniProt P08684); experiment: Inhibition of CYP3A4 (unknown origin) using midazolam as substrate; assay type: ADME
Cytochrome P450 2C8 = target: T3, Cytochrome P450 2C8 (Homo sapiens, UniProt P10632); experiment: Inhibition of CYP2C8 (unknown origin); assay type: ADME
T3 sequence (P10632 whole entry): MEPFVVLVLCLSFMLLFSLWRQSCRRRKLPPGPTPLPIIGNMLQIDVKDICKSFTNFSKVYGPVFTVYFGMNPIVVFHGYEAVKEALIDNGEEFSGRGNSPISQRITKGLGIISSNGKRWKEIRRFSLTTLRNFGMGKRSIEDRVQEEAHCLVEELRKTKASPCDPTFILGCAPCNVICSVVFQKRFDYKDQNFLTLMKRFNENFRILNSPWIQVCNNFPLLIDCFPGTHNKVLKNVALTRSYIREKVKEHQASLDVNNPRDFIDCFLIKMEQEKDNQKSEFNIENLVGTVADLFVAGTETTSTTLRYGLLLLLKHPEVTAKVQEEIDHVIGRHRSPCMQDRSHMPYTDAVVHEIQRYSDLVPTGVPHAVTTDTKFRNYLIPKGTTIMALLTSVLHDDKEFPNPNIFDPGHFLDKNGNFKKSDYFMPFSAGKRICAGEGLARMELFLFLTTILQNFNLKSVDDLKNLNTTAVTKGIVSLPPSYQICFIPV

Cytochrome P450 3A4 [15] = target: T2, Cytochrome P450 3A4; experiment: Inhibition of CYP3A4 (unknown origin) using testosterone as substrate; assay type: ADME
[16] = Solubility of the compound; assay type: physicochemical
Cytochrome P450 2C19 = Cytochrome P450 2C19 (Homo sapiens, UniProt P33261); experiment: Inhibition of CYP2C19 (unknown origin); assay type: ADME
[17] = Protein binding in human serum; assay type: ADME, cell-free; conditions: read-out: PB
[18] = Clearance in mouse plasma at 10 mg/kg, iv; assay type: ADME, organism-based
RBCs = experiment: Hemolytic activity in RBC (unknown origin) at 128 ug/ml; assay type: ADME, cell-based; conditions: erythrocyte
Cytochrome P450 2D6 = Cytochrome P450 2D6 (Homo sapiens, UniProt P10635); experiment: Inhibition of CYP2D6 (unknown origin); assay type: ADME
Mus musculus = experiment: Toxicity in mouse assessed as abnormal behavior at 100 to 300 mg/kg, po administered as single dose; assay type: organism-based; conditions: in vivo
CYP3A4 = CYP3A4 (Homo sapiens, UniProt P08684); experiment: Inhibition of CYP3A4 (unknown origin) at 10 uM; assay type: ADME
CYP2B6 = target: T4, CYP2B6 (Homo sapiens, UniProt P20813); experiment: Inhibition of CYP2B6 (unknown origin) at 10 uM; assay type: ADME
T4 sequence (P20813 whole entry): T1 sequence (P20813 whole entry)

T2 sequence (P08684 whole entry): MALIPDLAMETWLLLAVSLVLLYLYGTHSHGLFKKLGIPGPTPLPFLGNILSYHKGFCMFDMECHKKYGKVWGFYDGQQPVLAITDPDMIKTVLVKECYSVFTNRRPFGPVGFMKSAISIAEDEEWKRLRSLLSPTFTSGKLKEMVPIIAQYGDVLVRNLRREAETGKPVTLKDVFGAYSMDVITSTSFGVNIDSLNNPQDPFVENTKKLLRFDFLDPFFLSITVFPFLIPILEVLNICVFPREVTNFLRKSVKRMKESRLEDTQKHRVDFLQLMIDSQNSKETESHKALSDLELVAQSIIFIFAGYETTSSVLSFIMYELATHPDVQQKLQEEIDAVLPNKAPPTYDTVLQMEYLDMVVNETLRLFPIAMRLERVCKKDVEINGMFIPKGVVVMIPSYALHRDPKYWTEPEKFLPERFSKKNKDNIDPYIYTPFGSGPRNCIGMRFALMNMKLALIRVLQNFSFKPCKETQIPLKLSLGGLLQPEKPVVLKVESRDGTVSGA
Sequence of Cytochrome P450 2D6 (P10635 whole entry): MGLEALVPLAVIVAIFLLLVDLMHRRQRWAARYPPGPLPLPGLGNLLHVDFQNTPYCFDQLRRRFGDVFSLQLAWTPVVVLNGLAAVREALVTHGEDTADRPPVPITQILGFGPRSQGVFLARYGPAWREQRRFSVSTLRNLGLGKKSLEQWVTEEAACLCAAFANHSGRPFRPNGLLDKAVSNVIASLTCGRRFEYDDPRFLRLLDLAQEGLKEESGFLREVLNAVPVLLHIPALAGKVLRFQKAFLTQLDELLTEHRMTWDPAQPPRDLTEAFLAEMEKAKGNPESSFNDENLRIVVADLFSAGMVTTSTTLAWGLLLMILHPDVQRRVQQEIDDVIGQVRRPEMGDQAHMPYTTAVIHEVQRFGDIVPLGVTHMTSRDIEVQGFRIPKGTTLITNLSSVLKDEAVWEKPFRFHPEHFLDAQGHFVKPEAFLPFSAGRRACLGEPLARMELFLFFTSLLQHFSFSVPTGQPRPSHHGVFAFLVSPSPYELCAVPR
Sequence of Cytochrome P450 2C9 (P11712 whole entry): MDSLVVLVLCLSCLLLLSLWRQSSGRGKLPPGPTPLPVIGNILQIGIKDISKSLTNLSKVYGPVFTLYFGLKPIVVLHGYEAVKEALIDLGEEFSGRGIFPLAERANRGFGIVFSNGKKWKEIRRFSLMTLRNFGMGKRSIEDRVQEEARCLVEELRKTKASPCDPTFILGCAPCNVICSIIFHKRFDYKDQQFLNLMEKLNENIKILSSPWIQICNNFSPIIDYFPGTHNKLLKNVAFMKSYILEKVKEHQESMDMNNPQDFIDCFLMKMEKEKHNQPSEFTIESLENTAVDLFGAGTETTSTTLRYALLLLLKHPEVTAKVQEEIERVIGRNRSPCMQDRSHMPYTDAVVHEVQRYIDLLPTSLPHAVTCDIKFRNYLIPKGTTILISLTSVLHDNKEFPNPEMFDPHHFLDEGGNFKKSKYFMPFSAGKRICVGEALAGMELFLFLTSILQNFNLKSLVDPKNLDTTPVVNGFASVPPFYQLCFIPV
Sequence of Cytochrome P450 2C19 (P33261 whole entry): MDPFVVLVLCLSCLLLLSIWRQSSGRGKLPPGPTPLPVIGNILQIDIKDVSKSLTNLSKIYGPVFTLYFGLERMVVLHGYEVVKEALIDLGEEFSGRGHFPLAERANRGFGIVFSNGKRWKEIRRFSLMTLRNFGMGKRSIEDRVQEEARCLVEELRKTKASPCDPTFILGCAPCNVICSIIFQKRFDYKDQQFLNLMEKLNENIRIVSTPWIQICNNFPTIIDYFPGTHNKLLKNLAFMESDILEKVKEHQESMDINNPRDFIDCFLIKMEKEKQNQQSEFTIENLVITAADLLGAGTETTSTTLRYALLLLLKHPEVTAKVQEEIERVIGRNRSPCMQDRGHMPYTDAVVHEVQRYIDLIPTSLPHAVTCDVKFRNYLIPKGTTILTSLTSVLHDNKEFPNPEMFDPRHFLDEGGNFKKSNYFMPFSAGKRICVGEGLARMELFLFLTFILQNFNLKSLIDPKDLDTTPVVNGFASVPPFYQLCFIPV
Sequence of CYP3A4 (P08684 whole entry): as the sequence (P08684 whole entry) above

SMILES	MIC [1]	MIC [2]	MIC (Mycobacteroides chelonae)	MIC [3]	MIC [5]	MIC [7]	MIC [8]	MIC (Mycobacterium avium)	MIC [9]	MIC [10]	MIC [11]	MIC [12]	other results
CC12CC3CC(C)(C1)CC(C(=O)Nc1nc4ccc(OC(F)(F)F)cc4s1)(C3)C2	0.25 µg/mL (≈ 0.589 µM)	1 µg/mL (≈ 2.36 µM)	0.25 µg/mL (≈ 0.589 µM)	1 µg/mL (≈ 2.36 µM)	0.25 µg/mL (≈ 0.589 µM)	0.12 µg/mL (≈ 0.283 µM)	0.25 µg/mL (≈ 0.589 µM)	2 µg/mL (≈ 4.71 µM)	0.25 µg/mL (≈ 0.589 µM)	0.25 µg/mL (≈ 0.589 µM)	0.25 µg/mL (≈ 0.589 µM)	0.25 µg/mL (≈ 0.589 µM)	Activity [4]: 2 deltalog10CFU; Activity [6]: Active
COc1ccc2nc(NC(=O)C3CC(C)CC(C)(C)C3)sc2c1 (stereo not given)	1 µg/mL (≈ 3.01 µM)	8 µg/mL (≈ 24.1 µM)	0.25 µg/mL (≈ 0.752 µM)	8 µg/mL (≈ 24.1 µM)	0.5 µg/mL (≈ 1.5 µM)	1 µg/mL (≈ 3.01 µM)	2 µg/mL (≈ 6.02 µM)	16 µg/mL (≈ 48.1 µM)	2 µg/mL (≈ 6.02 µM)	1 µg/mL (≈ 3.01 µM)	–	1 µg/mL (≈ 3.01 µM)	–
CC1CC(C(=O)Nc2nc3c(Cl)cccc3s2)CC(C)(C)C1 (stereo not given)	16 µg/mL (≈ 47.5 µM)	16 µg/mL (≈ 47.5 µM)	2 µg/mL (≈ 5.94 µM)	–	1 µg/mL (≈ 2.97 µM)	1 µg/mL (≈ 2.97 µM)	2 µg/mL (≈ 5.94 µM)	> 64 µg/mL	4 µg/mL (≈ 11.9 µM)	4 µg/mL (≈ 11.9 µM)	–	2 µg/mL (≈ 5.94 µM)	–
CC1CC(C)CC(C(=O)Nc2nc3ccc(C(F)(F)F)cc3s2)C1 (stereo not given)	–	> 64 µg/mL	1 µg/mL (≈ 2.81 µM)	4 µg/mL (≈ 11.2 µM)	0.5 µg/mL (≈ 1.4 µM)	0.25 µg/mL (≈ 0.701 µM)	2 µg/mL (≈ 5.61 µM)	> 64 µg/mL	1 µg/mL (≈ 2.81 µM)	2 µg/mL (≈ 5.61 µM)	0.25 µg/mL (≈ 0.701 µM)	1 µg/mL (≈ 2.81 µM)	bioavailability [13]: 53%; IC50 (Cytochrome P450 2B6): > 20 µM; IC50 (Cytochrome P450 2C9): > 20 µM; IC50 (Cytochrome P450 3A4 [14]): > 20 µM; IC50 (Cytochrome P450 2C8): > 20 µM; IC50 (Cytochrome P450 3A4 [15]): > 20 µM; solubility [16]: Insoluble; IC50 (Cytochrome P450 2C19): > 20 µM; fraction unbound [17]: < 0.01; clearance [18]: 28.3 mL/min/kg; Activity (RBCs): Non-Toxic; IC50 (Cytochrome P450 2D6): 1.4 µM
O=C(Nc1nc2ccc(OC(F)(F)F)cc2s1)C1CCCCC1	32 µg/mL (≈ 92.9 µM)	> 64 µg/mL	> 64 µg/mL	64 µg/mL (≈ 186 µM)	> 64 µg/mL	> 64 µg/mL	> 64 µg/mL	> 64 µg/mL	> 64 µg/mL	> 64 µg/mL	> 64 µg/mL	16 µg/mL (≈ 46.5 µM)	–
CC1CC(C(=O)Nc2nc3c(F)cc(F)cc3s2)CC(C)(C)C1 (stereo not given)	–	4 µg/mL (≈ 11.8 µM)	0.25 µg/mL (≈ 0.739 µM)	–	0.5 µg/mL (≈ 1.48 µM)	0.2 µg/mL (≈ 0.591 µM)	1 µg/mL (≈ 2.95 µM)	64 µg/mL (≈ 189 µM)	0.25 µg/mL (≈ 0.739 µM)	0.5 µg/mL (≈ 1.48 µM)	0.5 µg/mL (≈ 1.48 µM)	0.5 µg/mL (≈ 1.48 µM)	Activity (Mus musculus): Non-Toxic
CC1CC(C(=O)Nc2nc3cc(Br)ccc3s2)CC(C)(C)C1 (stereo not given)	32 µg/mL (≈ 83.9 µM)	> 64 µg/mL	16 µg/mL (≈ 42 µM)	–	64 µg/mL (≈ 168 µM)	4 µg/mL (≈ 10.5 µM)	32 µg/mL (≈ 83.9 µM)	> 64 µg/mL	16 µg/mL (≈ 42 µM)	16 µg/mL (≈ 42 µM)	16 µg/mL (≈ 42 µM)	16 µg/mL (≈ 42 µM)	–
CC12CCCC(C(=O)Nc3nc4cc(Cl)cc(Cl)c4s3)(CCC1)C2	–	2 µg/mL (≈ 5.22 µM)	0.03 µg/mL (≈ 0.0783 µM)	≤ 0.12 µg/mL	0.03 µg/mL (≈ 0.0783 µM)	0.03 µg/mL (≈ 0.0783 µM)	0.06 µg/mL (≈ 0.157 µM)	2 µg/mL (≈ 5.22 µM)	0.06 µg/mL (≈ 0.157 µM)	0.03 µg/mL (≈ 0.0783 µM)	0.03 µg/mL (≈ 0.0783 µM)	0.03 µg/mL (≈ 0.0783 µM)	inhibition at 10 µM (CYP3A4): > 50%; inhibition at 10 µM (CYP2B6): > 50%
